The source of these data is publication PMC3807862 (Journal of medicinal chemistry, 2013).

In data set [1] the target is T1, HNE (Homo sapiens, UniProt P08246).
T1 sequence (P08246 30-267): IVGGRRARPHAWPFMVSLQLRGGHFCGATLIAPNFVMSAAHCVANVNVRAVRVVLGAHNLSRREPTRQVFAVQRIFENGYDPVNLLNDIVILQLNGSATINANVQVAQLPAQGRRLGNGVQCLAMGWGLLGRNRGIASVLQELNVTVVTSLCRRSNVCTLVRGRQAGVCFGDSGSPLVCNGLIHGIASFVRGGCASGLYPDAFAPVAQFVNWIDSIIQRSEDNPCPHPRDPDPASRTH
The experiment in a line: HNE inhibition over time. It counts as biochemical. The conditions noted are these: for period of maximal HNE inhibition (during the first x h): 5 μM compound; for time to recovery of HNE activity after treatment: up to 5 μM compound.

Data set [2] concerns human pancreas chymotrypsin. As to the kind of experiment: Chymotrypsin inhibition. It counts as biochemical.
For data set [3], the target named is human urine urokinase (Homo sapiens, UniProt P00749). The experiment in a line: Urokinase inhibition. It counts as biochemical.
Data set [4] has as its target T2, Human neutrophil elastase (HNE) (Homo sapiens, UniProt P08246).
T2 sequence (P08246 30-267): T1 sequence (P08246 30-267)
As to the kind of experiment: HNE inhibition assay. The data set is classed as biochemical.

The target in data set [5] is human plasma kallikrein (Homo sapiens, UniProt P03952). As to the kind of experiment: Kallikrein inhibition. It counts as biochemical.
The target of data set [6] is human plasma thrombin (Homo sapiens, UniProt P00734). The experiment in a line: Thrombin inhibition. It counts as biochemical.
Data set [7] can be described thus: Spontaneous hydrolysis in aqueous buffer. The conditions noted are these: 20 μM. It counts as physicochemical.

human plasma kallikrein, sequence (P03952 20-638): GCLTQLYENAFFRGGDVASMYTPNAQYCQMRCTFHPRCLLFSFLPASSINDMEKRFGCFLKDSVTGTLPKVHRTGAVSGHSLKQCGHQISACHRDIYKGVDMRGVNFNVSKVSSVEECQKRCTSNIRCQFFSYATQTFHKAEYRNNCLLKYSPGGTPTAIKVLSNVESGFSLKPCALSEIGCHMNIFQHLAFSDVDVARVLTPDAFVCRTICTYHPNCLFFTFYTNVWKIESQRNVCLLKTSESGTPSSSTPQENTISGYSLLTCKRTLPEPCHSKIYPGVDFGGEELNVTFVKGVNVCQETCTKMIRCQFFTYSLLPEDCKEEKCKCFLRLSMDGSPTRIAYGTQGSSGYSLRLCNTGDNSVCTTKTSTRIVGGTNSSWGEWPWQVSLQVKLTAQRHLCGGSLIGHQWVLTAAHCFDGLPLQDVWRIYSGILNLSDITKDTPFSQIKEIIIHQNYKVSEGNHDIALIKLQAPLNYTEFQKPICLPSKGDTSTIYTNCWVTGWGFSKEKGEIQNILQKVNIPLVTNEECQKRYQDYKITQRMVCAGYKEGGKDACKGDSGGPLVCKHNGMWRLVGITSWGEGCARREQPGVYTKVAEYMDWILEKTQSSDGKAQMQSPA

Turning to `COC(=O)c1nn(C(=O)c2cccc(C)c2)c2ccc([N+](=O)[O-])cc12` [Compound 14b, 1-(3-Methylbenzoyl)-5-nitro-1H-indazole-3-carboxylic Acid Methyl Ester], in data set [1], the “period of maximal HNE inhibition (during the first x h)” value (“period of maximal HNE inhibition” for short) came out at 4 h. With `CCOC(=O)c1nn(C(=O)c2ccsc2)c2ccc([N+](=O)[O-])cc12` [Compound 14h, 5-Nitro-1-(thiophene-3-carbonyl)-1H-indazole-3-carboxylic Acid Ethyl Ester], the “time to recovery of HNE activity after treatment” value in data set [1] lay in the range of 1 to 2 h. Turning to `CCOC(=O)c1nn(C(=O)c2cccc(C)c2)c2ccc(NC(=O)C3CC3)cc12` [Compound 20f, 5-(Cyclopropanecarbonylamino)-1-(3-methylbenzoyl)-1H-indazole-3-carboxylic Acid Ethyl Ester], in data set [2], the “chymotrypsin inhibition (in words)” value is reported as “lowest activity for this enzyme”. Further, the “urokinase inhibition (in words)” value in data set [3] is “no inhibitory activity”. In data set [1], the “period of maximal HNE inhibition” value is on record as 5 h. Further, the IC50 in data set [4] is around 10 nM. On to `CCOC(=O)c1nn(C(=O)c2cccc(C)c2)c2ccc(NC(C)=O)cc12` [Compound 20a, 5-Acetylamino-1-(3-methylbenzoyl)-1H-indazole-3-carboxylic Acid Ethyl Ester], for which the “period of maximal HNE inhibition” value in data set [1] was determined as 4 h. `CCOC(=O)c1nn(C(=O)c2cccc(C)c2)c2ccc(OC(F)(F)F)cc12` [Compound 31g, 1-(3-Methylbenzoyl)-5-trifluoromethoxy-1H-indazole-3-carboxylic Acid Ethyl Ester]: the “increase of HNE inhibitory activity compared to the reference compounds A and F” value in data set [4] is 2-3 fold.

Take `COC(=O)c1nn(C(=O)c2ccccc2)c2ccc([N+](=O)[O-])cc12` [Compound 14a, 1-Benzoyl-5-nitro-1H-indazole-3-carboxylic Acid Methyl Ester]: the “time to recovery of HNE activity after treatment” value in data set [1] was 1 to 2 h. The “kallikrein inhibition (in words)” value in data set [5] is “inhibited kallikrein”.

On to `COC(=O)c1nn(C(=O)c2cccc(C)c2)c2cc([N+](=O)[O-])ccc12` [Compound 15, 1-(3-Methylbenzoyl)-6-nitro-1H-indazole-3-carboxylic Acid Methyl Ester], for which the “period of maximal HNE inhibition” value in data set [1] turned out to be 4 h. Regarding `COC(=O)c1nn(C(=O)c2cccc(C)c2)c2c([N+](=O)[O-])cccc12` [Compound 16, 1-(3-Methylbenzoyl)-7-nitro-1H-indazole-3-carboxylic Acid Methyl Ester], the “HNE inhibitory activity (in words)” value in data set [4] is “inactive”. With `CCOC(=O)c1nn(C(=O)c2ccccc2)c2ccc(OC)cc12` [Compound 31d, 1-Benzoyl-5-methoxy-1H-indazole-3-carboxylic Acid Ethyl Ester], the “increase of HNE inhibitory activity compared to the reference compounds A and F” value in data set [4] is given as 2-3 fold. As to `Cc1cccc(C(=O)n2nc(C#N)c3ccccc32)c1` [Compound 5b, 1-(3-Methylbenzoyl)-1H-indazole-3-carbonitrile], the “urokinase inhibition (in words)” value in data set [3] is recorded as “at micromolar concentrations”. In addition, the “thrombin inhibition (in words)” value in data set [6] is reported as “at micromolar concentrations”. Further, the “time after which compound was hydrolyzed almost completely” value in data set [7] is 35 min.
